Laboratory results as given in the supplement of paper PMC10307832.

Experiments:
Assay in all cases: relative viability (nuclei count vs DMSO), 5 days (fraction); higher = more cells survive
[1] = compound: C1/C(=C\C2=CC=CS2)/C(=O)/C(=C/C3=CC=CS3)/C1 + CC(=O)Nc1cccc(-n2c(=O)n(C3CC3)c(=O)c3c(Nc4ccc(I)cc4F)n(C)c(=O)c(C)c32)c1 [Trametinib] (partner 0.02 µM)
Method in brief: (§1)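 Five library-drug doses in √10 steps were combined with a fixed anchor-drug dose, or a single drug was given alone, by pin tool to lung cancer cell lines in 1536-well plates the day after seeding. Nuclei were stained and counted after 5 days. Relative viability is the nuclei count in treated wells over that in vehicle wells, taken as the median of duplicate plates.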

[2] = compound: C[C@]12O[C@H](C[C@]1(O)CO)n1c3ccccc3c3c4c(c5c6ccccc6n2c5c31)CNC4=O [Lestaurtinib] + Cc1cc(Nc2cc(N3CCN(C)CC3)nc(Sc3ccc(NC(=O)C4CC4)cc3)n2)n[nH]1 [Tozasertib] (partner 0.1 µM)
Method in brief: as §1

[3] = compound: C[C@]12O[C@H](C[C@]1(O)CO)n1c3ccccc3c3c4c(c5c6ccccc6n2c5c31)CNC4=O [Lestaurtinib] + C[C@]1(O)C[C@@H](c2nc(-c3ccc4ccc(-c5ccccc5)nc4c3)c3c(N)nccn32)C1 [Linsitinib] (partner 1 µM)
Method in brief: as §1

[4] = compound: C1/C(=C\C2=CC=CS2)/C(=O)/C(=C/C3=CC=CS3)/C1 + COc1cccc2cc(-c3nc([C@H]4CC[C@H](C(=O)O)CC4)n4ncnc(N)c34)[nH]c12 [OSI-027] (partner 0.5 µM)
Method in brief: as §1

Cell Line	relative viability ([1]; first compound 0.2 µM)	relative viability ([1]; first compound 0.6325 µM)	relative viability ([1]; first compound 2 µM)	relative viability ([1]; first compound 6.325 µM)	relative viability ([1]; first compound 20 µM)	relative viability ([2]; first compound 0.005 µM)	relative viability ([2]; first compound 0.01581 µM)	relative viability ([2]; first compound 0.05 µM)	relative viability ([2]; first compound 0.1581 µM)	relative viability ([2]; first compound 0.5 µM)	relative viability ([3]; first compound 0.005 µM)	relative viability ([3]; first compound 0.01581 µM)	relative viability ([3]; first compound 0.05 µM)	relative viability ([3]; first compound 0.1581 µM)	relative viability ([3]; first compound 0.5 µM)	relative viability ([4]; first compound 0.2 µM)	relative viability ([4]; first compound 0.6325 µM)	relative viability ([4]; first compound 2 µM)	relative viability ([4]; first compound 6.325 µM)	relative viability ([4]; first compound 20 µM)
201T	0.708	0.704	0.736	0.708	0.706	1	0.984	1.05	0.955	0.354	1.03	0.987	0.992	0.926	0.937	0.691	0.753	0.82	0.662	0.69
A549											0.621	0.596	0.229	0.148	0.174					
A-427	0.838	0.738	0.887	0.739	0.815	0.199	0.206	0.183	0.159	0.144	1.17	1.12	1.01	0.631	0.658	0.481	0.465	0.491	0.445	0.442
ABC-1						0.208	0.175	0.134	0.155	0.2	0.834	0.993	0.603	0.536	0.165	0.645	0.583	0.647	0.426	0.498
BEN	1.01	1.11	1.04	1.05	0.977	0.561	0.53	0.428	0.377	0.217	0.949	1.09	0.747	0.778	0.321	0.258	0.275	0.352	0.288	0.282
CAL-12T	0.376	0.365	0.316	0.261	0.307	0.32	0.44	0.333	0.37	0.332	0.805	0.84	0.774	0.565	0.416	0.64	0.886	0.709	0.335	0.547
COR-L23	0.553	0.575	0.674	0.508	0.633	0.197	0.229	0.184	0.174	0.184	1	0.858		0.471	0.153	0.804	0.816	0.732	0.709	0.749
COR-L 105	0.421	0.463	0.447	0.402	0.451	0.406	0.355	0.35	0.31	0.268	1.11	0.873	0.692	0.502	0.337	0.679	0.849	0.781		0.632
Calu-6											0.908		0.555	0.262	0.218					
ChaGo-K-1	0.9	0.949	0.838	0.675	0.478	0.221	0.254	0.243	0.231	0.215						0.549	0.59	0.588	0.491	0.268
EBC-1											0.856	0.999	0.585	0.633	0.432					
EKVX	0.415	0.307	0.368		0.295	0.345	0.432	0.417	0.378	0.395	1.03	1.13	0.949	1.08	0.552	0.679	0.673	0.717	0.615	0.646
EMC-BAC-2	1	0.854	0.939	0.864	0.952	0.279	0.206	0.283	0.22	0.183	0.764	0.801	0.641	0.45	0.221	0.411	0.383	0.432	0.337	0.389
EPLC-272H	0.333	0.263	0.3	0.243	0.267	0.297	0.282	0.322	0.231	0.128	1.13	1.05	0.517	0.54	0.577	0.349	0.284	0.285	0.238	0.265
H3255	0.644	0.583	0.596	0.446	0.666	0.611	0.884	0.633	0.587	0.5	0.986	1.07	0.864	0.668	0.457	0.585	0.589	0.541	0.568	0.566
HARA	0.622	0.78	0.663	0.937	0.829	0.126	0.106	0.111	0.108	0.102	1.02	1.09	0.648	0.453	0.198	0.525	0.437	0.502	0.379	0.57
HCC-15	0.397	0.376	0.417	0.376	0.374	0.598	0.599	0.232	0.235	0.107	0.98	0.958	0.71	0.529	0.159	0.769	0.684	0.683	0.548	0.665
HCC-44	1.1	1.07	1.09	0.925	0.911	0.882	1.08	0.996	1.48	0.354	0.597	0.725	0.577	0.88	0.366	0.482	0.528	0.649	0.475	0.479
HCC-78	0.762	0.438	0.744	0.805	0.666	0.434	0.363	0.436	0.353	0.183	0.53	0.419	0.413	0.225	0.234	0.372	0.404	0.431	0.37	0.326
HCC-366	0.386	0.371	0.316	0.314	0.329	0.174	0.126	0.142	0.0841	0.072	0.678	0.694	0.28	0.257	0.109	1.13	1.01	1.11	0.744	0.836

Cell Line	relative viability ([1]; first compound 0.2 µM)	relative viability ([1]; first compound 0.6325 µM)	relative viability ([1]; first compound 2 µM)	relative viability ([1]; first compound 6.325 µM)	relative viability ([1]; first compound 20 µM)	relative viability ([2]; first compound 0.005 µM)	relative viability ([2]; first compound 0.01581 µM)	relative viability ([2]; first compound 0.05 µM)	relative viability ([2]; first compound 0.1581 µM)	relative viability ([2]; first compound 0.5 µM)	relative viability ([3]; first compound 0.005 µM)	relative viability ([3]; first compound 0.01581 µM)	relative viability ([3]; first compound 0.05 µM)	relative viability ([3]; first compound 0.1581 µM)	relative viability ([3]; first compound 0.5 µM)	relative viability ([4]; first compound 0.2 µM)	relative viability ([4]; first compound 0.6325 µM)	relative viability ([4]; first compound 2 µM)	relative viability ([4]; first compound 6.325 µM)	relative viability ([4]; first compound 20 µM)
HCC-827	0.548	0.558	0.524	0.5	0.54	0.492	0.405	0.396	0.348	0.217	0.913	0.996	0.87	0.857	0.762	0.813	0.767	0.809	0.737	0.695
HOP-62	0.346	0.457	0.377	0.381	0.391	0.35	0.43	0.396	0.356	0.234	0.838	0.994	0.995	1.05	0.891	0.836	0.73	0.851	0.771	0.872
IA-LM											0.459	1.02	0.927	0.792	0.553					
LC-2-ad	0.9	0.94	0.893	0.781	0.897	0.441	0.498	0.442	0.393	0.289	0.824	0.819	0.372	0.323	0.157	0.817	0.941	0.984	0.708	0.785
LCLC-97TM1	0.216	0.198	0.221	0.174	0.218	0.317	0.177	0.0893	0.133	0.171	0.2	0.172	0.153	0.135	0.113	0.503	0.605	0.627	0.428	0.486
LCLC-103H	0.664	0.701	0.678	0.595	0.63	0.526	0.595	0.384	0.424	0.209	1.07	1.12	0.697	0.705	0.6	0.466	0.464	0.603	0.502	0.426
LK-2	0.643	0.968	0.809	0.712	0.707	0.161	0.183	0.165	0.17	0.164	0.456	0.847	0.403	0.394	0.176	0.223	0.226	0.266	0.216	0.2
LOU-NH91	0.777	0.775	0.781	0.75	0.806	0.61	0.602	0.628	0.496	0.295	0.912	0.887	0.773	0.603	0.45	0.733	0.722	0.769	0.648	0.714
NCI-H522	0.726	0.728	0.715	0.739	0.767	0.571	0.536	0.627	0.528	0.496						0.793	0.715	0.841	0.518	0.727
NCI-H1299											0.985	1.02	0.688	0.504	0.499					
NCI-H1563											1.25	1.17	1.16	1.22	0.736	0.774	0.787	0.717	0.729	0.773
NCI-H1623						0.42	0.722	0.415	0.418	0.424						0.455	0.465	0.445	0.434	0.405
NCI-H1648	0.604	0.628	0.435	0.417	0.256	0.377	0.649	0.391	0.487	0.49						0.282	0.269	0.307		0.258
NCI-H1650	0.619	0.679	0.548	0.627	0.516	0.469	0.526	0.343	0.371	0.313						0.727	0.713	0.743	0.544	0.733
NCI-H1703											0.513	0.508	0.562	0.164	0.149					
NCI-H1792	0.432	0.531	0.533	0.525	0.35						0.757	0.56	0.386	0.243	0.144	0.84	0.619	0.754	0.694	0.67
NCI-H2170	0.918	0.92	0.863	0.78	0.867	0.72	0.848	0.696	0.45	0.219						0.713	0.728	0.77	0.416	0.785
NCI-H2342	0.859	0.819	0.801	0.672	0.899	0.528	0.502	0.538	0.418	0.418						0.626	0.644	0.741	0.52	0.607
SW 900	0.739	0.752	0.815	0.308	0.734	0.462	0.683	0.503	0.703	0.538						0.63	0.492	0.612	0.531	0.796
